Laboratory results: patent publication US7049303B2, “Inhibition of viruses” (Medical Research Council, priority 2001, dated 2006)

Experiments:
[1] = tested on: human T-lymphocytes (CEM/O cells); experiment: Toxicity: inhibition of proliferation of human T-lymphocytes (CEM/O cells); format: cell-based; settings: T-lymphocyte, read-out: IC50 (50% inhibitory concentration), proliferation of CEM/O cells
Protocol: Following synthesis, the various compounds were tested in vitro for toxicity, by measuring the IC50 (i.e. the concentration which caused 50% inhibition) in respect of the inhibitory effects of the compounds on the proliferation of human T-lymphocytes (CEM/O cells).

[2] = tested on: HIV-1(IIIB); experiment: Serial passage of HIV-1 infected CEM cell cultures with sub-toxic drug, cytopathic effect (giant cell formation); format: cell-based; settings: for percentage of cytopathic effect (giant cell formation), passage number 1: passage 1; for percentage of cytopathic effect (giant cell formation), passage number 1 / percentage of cytopathic effect (giant cell formation), passage number 2 / percentage of cytopathic effect (giant cell formation), passage number 3 / percentage of cytopathic effect (giant cell formation), passage number 4 / percentage of cytopathic effect (giant cell formation), passage number 5 / percentage of cytopathic effect (giant cell formation), passage number 6 / percentage of cytopathic effect (giant cell formation), passage number 7: subcultivation every 5 days; for percentage of cytopathic effect (giant cell formation), passage number 2: passage 2; for percentage of cytopathic effect (giant cell formation), passage number 3: passage 3; for percentage of cytopathic effect (giant cell formation), passage number 4: passage 4; for percentage of cytopathic effect (giant cell formation), passage number 5: passage 5; for percentage of cytopathic effect (giant cell formation), passage number 6: passage 6; for percentage of cytopathic effect (giant cell formation), passage number 7: passage 7; for antiviral activity (inhibition of HIV replication) in words: HIV-1 infected CEM cells, sub-toxic concentrations, up to 7 passages
Protocol: HIV-1 infected CEM cells were subcultured every 4–5 days in the presence of sub-toxic concentrations (in the range of 10–20% of their respective IC50 value) of the compounds under test. At each sub-culture, cell-free supernatant (10–20 μl) was transferred to fresh 1 ml cell cultures. At regular intervals the cultures were inspected microscopically to assess the extent of any cytopathic effect (giant cell formation). As an alternative, it is also possible to perform an immunoassay to quantify viral p24 production.
The preliminary results for up to 7 passages are shown below in Table 3.

CONc1ncnc2c1ncn2[C@@H]1O[C@H](CO)[C@@H](O)[C@H]1O [JA26, N^6-methoxyadenosine]
IC50 [1]: 44 ± 2 µM | percentage of cytopathic effect (giant cell formation), passage number 1 ([2]; 4 μM): 100% | percentage of cytopathic effect (giant cell formation), passage number 2 ([2]; 4 μM): 100% | percentage of cytopathic effect (giant cell formation), passage number 3 ([2]; 4 μM): 25% | percentage of cytopathic effect (giant cell formation), passage number 4 ([2]; 4 μM): 100% | percentage of cytopathic effect (giant cell formation), passage number 5 ([2]; 4 μM): 100% | percentage of cytopathic effect (giant cell formation), passage number 6 ([2]; 4 μM): 12% | percentage of cytopathic effect (giant cell formation), passage number 7 ([2]; 4 μM): 3% | percentage of cytopathic effect (giant cell formation), passage number 1 ([2]; 10 μM): 100% | percentage of cytopathic effect (giant cell formation), passage number 2 ([2]; 10 μM): 100% | percentage of cytopathic effect (giant cell formation), passage number 3 ([2]; 10 μM): 25% | percentage of cytopathic effect (giant cell formation), passage number 4 ([2]; 10 μM): 100% | percentage of cytopathic effect (giant cell formation), passage number 5 ([2]; 10 μM): 100% | percentage of cytopathic effect (giant cell formation), passage number 6 ([2]; 10 μM): 12% | percentage of cytopathic effect (giant cell formation), passage number 7 ([2]; 10 μM): 3%

CN(N)c1ncnc2c1ncn2[C@@H]1O[C@H](CO)[C@@H](O)[C@H]1O [JA27, N^6-amino-N^6-methyladenosine]
IC50 [1]: 17 ± 2 µM | percentage of cytopathic effect (giant cell formation), passage number 1 ([2]; 4 μM): 100% | percentage of cytopathic effect (giant cell formation), passage number 2 ([2]; 4 μM): 100% | percentage of cytopathic effect (giant cell formation), passage number 3 ([2]; 4 μM): 6% | percentage of cytopathic effect (giant cell formation), passage number 4 ([2]; 4 μM): 25% | percentage of cytopathic effect (giant cell formation), passage number 5 ([2]; 4 μM): 25% | percentage of cytopathic effect (giant cell formation), passage number 6 ([2]; 4 μM): 0% | percentage of cytopathic effect (giant cell formation), passage number 7 ([2]; 4 μM): 0% | antiviral activity (inhibition of HIV replication) in words [2]: moderately effective

CONc1nc(N)nc2c1ncn2[C@@H]1O[C@H](CO)[C@@H](O)[C@H]1O [JA31, 2-amino-6-methoxyamino-9-β-D-ribofuranosylpurine]
IC50 [1]: 377 ± 62 µM | percentage of cytopathic effect (giant cell formation), passage number 1 ([2]; 20 μM): 100% | percentage of cytopathic effect (giant cell formation), passage number 2 ([2]; 20 μM): 100% | percentage of cytopathic effect (giant cell formation), passage number 3 ([2]; 20 μM): 3% | percentage of cytopathic effect (giant cell formation), passage number 4 ([2]; 20 μM): 19% | percentage of cytopathic effect (giant cell formation), passage number 5 ([2]; 20 μM): 12% | percentage of cytopathic effect (giant cell formation), passage number 6 ([2]; 20 μM): 0% | percentage of cytopathic effect (giant cell formation), passage number 7 ([2]; 20 μM): 0% | percentage of cytopathic effect (giant cell formation), passage number 1 ([2]; 50 μM): 100% | percentage of cytopathic effect (giant cell formation), passage number 2 ([2]; 50 μM): 100% | percentage of cytopathic effect (giant cell formation), passage number 3 ([2]; 50 μM): 0% | percentage of cytopathic effect (giant cell formation), passage number 4 ([2]; 50 μM): 0% | percentage of cytopathic effect (giant cell formation), passage number 5 ([2]; 50 μM): 0% | percentage of cytopathic effect (giant cell formation), passage number 6 ([2]; 50 μM): 0% | percentage of cytopathic effect (giant cell formation), passage number 7 ([2]; 50 μM): 0% | antiviral activity (inhibition of HIV replication) in words [2]: effective at inhibiting the replication of RNA viruses | antiviral activity (inhibition of HIV replication) in words ([2]; listed as rK): active in reducing viral titer

CNc1nc(N)nc2c1ncn2[C@@H]1O[C@H](CO)[C@@H](O)[C@H]1O [JA23, 2-amino-N^6-methyladenosine]
IC50 [1]: 622 ± 8 µM | percentage of cytopathic effect (giant cell formation), passage number 1 ([2]; 400 μM): 100% | percentage of cytopathic effect (giant cell formation), passage number 2 ([2]; 400 μM): 100% | percentage of cytopathic effect (giant cell formation), passage number 3 ([2]; 400 μM): 12% | percentage of cytopathic effect (giant cell formation), passage number 4 ([2]; 400 μM): 25% | percentage of cytopathic effect (giant cell formation), passage number 5 ([2]; 400 μM): 3% | percentage of cytopathic effect (giant cell formation), passage number 6 ([2]; 400 μM): 0% | percentage of cytopathic effect (giant cell formation), passage number 7 ([2]; 400 μM): 0% | antiviral activity (inhibition of HIV replication) in words [2]: moderately effective

NNc1ncnc2c1ncn2[C@@H]1O[C@H](CO)[C@@H](O)[C@H]1O [JA25, N^6-aminoadenosine]
IC50 [1]: 12 ± 3 µM | percentage of cytopathic effect (giant cell formation), passage number 1 ([2]; 0.8 μM): 100% | percentage of cytopathic effect (giant cell formation), passage number 2 ([2]; 0.8 μM): 100% | percentage of cytopathic effect (giant cell formation), passage number 3 ([2]; 0.8 μM): 87% | percentage of cytopathic effect (giant cell formation), passage number 4 ([2]; 0.8 μM): 100% | percentage of cytopathic effect (giant cell formation), passage number 5 ([2]; 0.8 μM): 100% | percentage of cytopathic effect (giant cell formation), passage number 6 ([2]; 0.8 μM): 100% | percentage of cytopathic effect (giant cell formation), passage number 7 ([2]; 0.8 μM): 100% | percentage of cytopathic effect (giant cell formation), passage number 1 ([2]; 2 μM): 100% | percentage of cytopathic effect (giant cell formation), passage number 2 ([2]; 2 μM): 100% | percentage of cytopathic effect (giant cell formation), passage number 3 ([2]; 2 μM): 100% | percentage of cytopathic effect (giant cell formation), passage number 4 ([2]; 2 μM): 100% | percentage of cytopathic effect (giant cell formation), passage number 5 ([2]; 2 μM): 100% | percentage of cytopathic effect (giant cell formation), passage number 6 ([2]; 2 μM): 100% | percentage of cytopathic effect (giant cell formation), passage number 7 ([2]; 2 μM): 100%

O=C1NC2=NOCCC2=CN1[C@H]1C[C@H](O)[C@@H](CO)O1 [JA21, 6-(2-deoxy-β-D-ribofuranosyl)-3,4-dihydro-8H-pyrimido[4,5-c][1,2] oxazin-7-one, reference compound]
IC50 [1]: 690 ± 14 µM | percentage of cytopathic effect (giant cell formation), passage number 1 ([2]; 400 μM): 100% | percentage of cytopathic effect (giant cell formation), passage number 2 ([2]; 400 μM): 100% | percentage of cytopathic effect (giant cell formation), passage number 3 ([2]; 400 μM): 25% | percentage of cytopathic effect (giant cell formation), passage number 4 ([2]; 400 μM): 50% | percentage of cytopathic effect (giant cell formation), passage number 5 ([2]; 400 μM): 37% | percentage of cytopathic effect (giant cell formation), passage number 6 ([2]; 400 μM): 12% | percentage of cytopathic effect (giant cell formation), passage number 7 ([2]; 400 μM): 6%

O=C1NC2=NOCCC2=CN1[C@@H]1O[C@H](CO)[C@@H](O)[C@H]1O [JA22, 6-(β-D-ribofuranosyl)-3,4-dihydro-8H-pyrimido[4,5-c][1,2] oxazin-7-one]
IC50 [1]: 698 ± 11 µM | percentage of cytopathic effect (giant cell formation), passage number 1 ([2]; 400 μM): 100% | percentage of cytopathic effect (giant cell formation), passage number 2 ([2]; 400 μM): 100% | percentage of cytopathic effect (giant cell formation), passage number 3 ([2]; 400 μM): 100% | percentage of cytopathic effect (giant cell formation), passage number 4 ([2]; 400 μM): 100% | percentage of cytopathic effect (giant cell formation), passage number 5 ([2]; 400 μM): 100% | percentage of cytopathic effect (giant cell formation), passage number 6 ([2]; 400 μM): 100% | percentage of cytopathic effect (giant cell formation), passage number 7 ([2]; 400 μM): 100%

OC[C@H]1O[C@@H](n2cnc3c(NO)ncnc32)[C@H](O)[C@@H]1O [JA28, N^6hydroxyadenosine]
IC50 [1]: 156 ± 15 µM | percentage of cytopathic effect (giant cell formation), passage number 1 ([2]; 20 μM): 100% | percentage of cytopathic effect (giant cell formation), passage number 2 ([2]; 20 μM): 100% | percentage of cytopathic effect (giant cell formation), passage number 3 ([2]; 20 μM): 19% | percentage of cytopathic effect (giant cell formation), passage number 4 ([2]; 20 μM): 100% | percentage of cytopathic effect (giant cell formation), passage number 5 ([2]; 20 μM): 100% | percentage of cytopathic effect (giant cell formation), passage number 6 ([2]; 20 μM): 100% | percentage of cytopathic effect (giant cell formation), passage number 7 ([2]; 20 μM): 100% | percentage of cytopathic effect (giant cell formation), passage number 1 ([2]; 40 μM): 100% | percentage of cytopathic effect (giant cell formation), passage number 2 ([2]; 40 μM): 100% | percentage of cytopathic effect (giant cell formation), passage number 3 ([2]; 40 μM): 50% | percentage of cytopathic effect (giant cell formation), passage number 4 ([2]; 40 μM): 100% | percentage of cytopathic effect (giant cell formation), passage number 5 ([2]; 40 μM): 100% | percentage of cytopathic effect (giant cell formation), passage number 6 ([2]; 40 μM): 75% | percentage of cytopathic effect (giant cell formation), passage number 7 ([2]; 40 μM): 6%
